Reference: EP4744648A1, “LIPOPEPTIDE-CONTAINING FAT-DISSOLVING PRODUCT, AND PREPARATION METHOD THEREFOR AND USE THEREOF” (Bloomage Biotechnology Corporation Limited, priority 2023, dated 2024)
Where two headings read alike, the source gives them in different places.

Tests used:
[1] = Surface tension at serial dilutions (CMC value determination), automatic interfacial tensiometer; type: physicochemical
Protocol: A 0.1% surfactin HXRZ solution and a sodium deoxycholate solution were separately prepared using purified water, followed by serial dilution to obtain different gradient concentrations. The surface tensions at different concentrations were determined respectively via a JZ-200A automatic interfacial tensiometer. Table 1 CMC value determination results

[2] = tested on: Mouse adipocyte cell line 3T3-F442A; test: In vitro cytotoxicity test: relative growth rate of cells by CCK-8; type: cell-based; settings: for relative growth rate: Example 8, X±SD
Protocol: Mouse adipocyte cell line 3T3-F442A in the logarithmic growth phase was seeded into a 96-well plate at a density of 1×10^5 cells/mL, with 100 µL per well. The culture medium consisted of a basal culture medium supplemented with 10% fetal bovine serum. The seeded cells were incubated conventionally in a carbon dioxide incubator at 37°C and 5% CO2 for 24 h.
The solution was freshly prepared before use.
After routine incubation for 24 h, the old culture medium was discarded, and then 100 µL of sample solution was added to replace it in the experimental group. An equal volume of serum-free culture medium was added to the normal control group. Each concentration was set up with at least three replicate wells.
After another incubation for 24 h, the relative growth rate of cells was detected by CCK-8. The culture medium was discarded, 100 µL of CCK-8 diluted 10-fold with the serum-free medium was added to each well. The plate was incubated in a cell incubator for another 2 h. The absorbance was determined using a microplate reader at a wavelength of 450 nm. The relative growth rate (RGR) is a ratio of the absorbance of the experimental group to the absorbance of the normal control group.
3T3-F442A mouse adipocytes in the logarithmic growth phase were seeded into a 96-well plate at a density of 1 × 10^5 cells/mL, with 100 µL per well. After incubation for 24 h, the culture medium was replaced with 100 µL of culture medium containing different concentrations of samples. An equal volume of serum-free culture medium was added to the blank control group, and the incubation was continued for another 24 h. The relative growth rate of cells was determined by CCK-8. The blank control was set as 100%, the relative growth rate and half inhibitory concentration of each group were calculated.

[3] = tested on: transgenic obese (ob/ob) mice; settings: for degradation of adipose tissue (H-E sections, FIG. 6): Example 5, 200 µL, one mouse
Protocol: 6-week-old transgenic obese (ob/ob) mice were used as the animal model. Different drugs were injected into the adipose pads of the left buttock. The mice were totally divided into three groups with 7-10 mice per group, as specified below. • 1) Negative control group: injected with 200 µL of sterile normal saline; • 2) 1% sodium deoxycholate group: injected with 200 µL of sterile normal saline solution containing 1% sodium deoxycholate; • 3) 0.1% surfactin HXRZ group: injected with 200 µL of sterile normal saline solution containing 0.1% surfactin HXRZ.
The day of the first administration was defined as Day 1 of the experiment. Additional administrations were performed on Day 3 and Day 5, respectively. The general condition and administration sites of the mice were observed regularly throughout the experiment. On Day 21 of the experiment, the mice were sacrificed and dissected. The adipose tissue of the left buttock was isolated, fixed immediately in adipose tissue fixative, and then embedded in paraffin. The adipose tissue was stained by hematoxylin and eosin staining for pathological examination, followed by observation and analysis under an optical microscope.
Specifically, 6-week-old transgenic obese (ob/ob) mice were used as the animal model, with one mouse per group. 200 µL each of 0.5% and 1% surfactin HXRZ normal saline solutions (test samples) were injected into the adipose pads of the left buttock, respectively. The day of the first administration was defined as Day 1 of the experiment. Additional administrations were performed on Day 3 and Day 5, respectively. The general condition and administration sites of the mice were observed regularly throughout the experiment. On Day 21 of the experiment, the mice were sacrificed and dissected. The adipose tissue of the left buttock of the mice was isolated, fixed immediately in adipose tissue fixative, and then embedded in paraffin. The adipose tissue was stained by hematoxylin and eosin staining for pathological examination, followed by observation and analysis under an optical microscope.

[4] = tested on: Kunming mice
Protocol: 6-week-old Kunming mice (weighing 20-30 g) were used as the model. A total of 200 µL of different drugs was injected subcutaneously at multiple sites with multiple needles into the left inguinal region of each mouse. The experimental groups were set as follows: • 1) Negative control group (n = 3): 200 µL of sterile normal saline; • 2) 1% sodium deoxycholate group (n = 3): 200 µL of 1% sodium deoxycholate normal saline solution; • 3) 2% sodium deoxycholate group (n = 3): 200 µL of 2% sodium deoxycholate normal saline solution; • 4) 0.5% surfactin HXRZ group (n = 3): 200 µL of 0.5% surfactin HXRZ normal saline solution; • 5) 1% surfactin HXRZ group (n = 3): 200 µL of 1% surfactin HXRZ normal saline solution; • 6) 2% surfactin HXRZ group (n = 3): 200 µL of 2% surfactin HXRZ normal saline solution;
Administration was performed once every 7 days. Ulceration at the administration site of each mouse was observed throughout the administration period. On day 21 of the experiment, all mice were sacrificed and dissected.

[5] = tested on: Kunming mice; settings: for Adipocyte density (n/mm^2): day 42, M±SEM
Protocol: In this example, 6-week-old Kunming mice (20-30 g) were used as the model. A total of 200 µL of different drugs was injected subcutaneously at multiple sites with multiple needles into the left inguinal region of each mouse. The experimental groups were set as follows. • 1) Negative control group (n = 9): 200 µL of sterile normal saline; • 2) Sodium deoxycholate group (n = 9): 200 µL of 1% sodium deoxycholate sterile normal saline solution; and • 3) Surfactin HXRZ group (n = 9): 200 µL of 1% surfactin HXRZ sterile normal saline solution.
On day 42 of the experiment, the mice were sacrificed and dissected. The left inguinal adipose tissue was harvested, fixed immediately in adipose tissue fixative and then embedded in paraffin. […] The adipocyte density was then calculated.
Statistical analysis was performed by using ulceration as an indicator of severe local inflammation and subcutaneous nodules and induration as indicators of mild local inflammation.

Surface tension value ([1]; solution concentration 0.00078125 % in purified water): 39.08 mN/m
Surface tension value ([1]; solution concentration 0.0015625 % in purified water): 38.38 mN/m
Surface tension value ([1]; solution concentration 0.003125 % in purified water): 37.64 mN/m
Surface tension value ([1]; solution concentration 0.00625 % in purified water): 37.16 mN/m
Surface tension value ([1]; solution concentration 0.0125 % in purified water): 36.28 mN/m
Surface tension value ([1]; solution concentration 0.025 % in purified water): 35.64 mN/m
Surface tension value ([1]; solution concentration 0.05 % in purified water): 33.43 mN/m
Surface tension value ([1]; solution concentration 0.05 % in purified water, listed as surfactin HXRZ): 33 mN/m
Surface tension value ([1]; solution concentration 0.1 % in purified water): 33.69 mN/m
Substance: surfactin [Surfactin HXRZ]
treatment time at which adipocytes were completely lysed ([2]; 0.08 mg/mL): 24 h
cell morphology of adipocytes (inverted microscope, FIG. 4) ([2]; 0.08 mg/mL, 24 h): nearly all cells died
half maximal inhibitory concentrations IC50 ([2]; 3T3-F442A adipocytes, 24 h, calculated from Table 2 curves): 27.1 µg/mL
Relative growth rate (%) ([2]; Example 2, 0.005 mg/mL, 24 h, 3T3-F442A): 101.2±15.71%
Relative growth rate (%) ([2]; Example 2, 0.01 mg/mL, 24 h, 3T3-F442A): 90.23±4.30%
Relative growth rate (%) ([2]; Example 2, 0.02 mg/mL, 24 h, 3T3-F442A): 67.56±3.81%
Relative growth rate (%) ([2]; Example 2, 0.04 mg/mL, 24 h, 3T3-F442A): 19.34±1.43%
Relative growth rate (%) ([2]; Example 2, 0.08 mg/mL, 24 h, 3T3-F442A): 10.74±0.51%
Relative growth rate (%) ([2]; Example 3, 0.02 mg/mL, 0.5 h): 75.21±4.86%
Relative growth rate (%) ([2]; Example 3, 0.02 mg/mL, 4 h): 61.07±5.11%
Relative growth rate (%) ([2]; Example 3, 0.02 mg/mL, 24 h): 67.56±0.09%
Relative growth rate (%) ([2]; Example 3, 0.04 mg/mL, 0.5 h): 59.48±3.47%
Relative growth rate (%) ([2]; Example 3, 0.04 mg/mL, 4 h): 37.95±1.99%
Relative growth rate (%) ([2]; Example 3, 0.04 mg/mL, 24 h): 19.34±0.03%
Relative growth rate (%) ([2]; Example 3, 0.08 mg/mL, 0.5 h): 32.81±6.73%
Relative growth rate (%) ([2]; Example 3, 0.08 mg/mL, 4 h): 24.38±3.37%
Relative growth rate (%) ([2]; Example 3, 0.08 mg/mL, 24 h): 10.74±0.01%
relative growth rate ([2]; 0.005 mg/mL, 24 h, 3T3-F442A): 103.67±1.59 b, c %
relative growth rate ([2]; 0.01 mg/mL, 24 h, 3T3-F442A): 67.49±5.46 a, b, c %
relative growth rate ([2]; 0.02 mg/mL, 24 h, 3T3-F442A): 20.76±5.32 a, b, c %
relative growth rate ([2]; 0.04 mg/mL, 24 h, 3T3-F442A): 9.99±0.38 b %
relative growth rate ([2]; 0.08 mg/mL, 24 h, 3T3-F442A): 9.01±0.06 b, c %
degradation of adipose tissue at the administration sites (H-E sections, FIG. 5) ([3]; Example 4, 0.1 %, 200 µL in normal saline, left buttock, Days 1, 3, 5, Day 21): induced the degradation of adipose tissue at the administration sites
degradation of adipose tissue (H-E sections, FIG. 6) ([3]; 0.5 %, left buttock, Days 1, 3, 5, Day 21): induced the degradation of adipose tissue in mice
degradation of adipose tissue (H-E sections, FIG. 6) ([3]; 1 %, left buttock, Days 1, 3, 5, Day 21): induced the degradation of adipose tissue in mice
induration / ulceration at the administration sites ([3]; mouse, in vivo): No such phenomena were observed
degradation of inguinal adipose tissue at the administration sites (dissection, FIG. 9) ([4]; 0.5 %, treated side vs untreated side): a certain degree of degradation
degree of ulceration at the administration sites compared with sodium deoxycholate ([4]; mouse, in vivo): milder than that in the 2% sodium deoxycholate group
degree of ulceration compared with sodium deoxycholate ([4]; mouse, in vivo): milder than that in the 1% sodium deoxycholate group
healing of ulceration ([4]; mouse, in vivo): healed completely
healing of ulcers ([4]; mouse, in vivo): failed to heal
ulceration at the injection sites ([4]; mouse, in vivo, sc): no ulceration occurred at the injection sites
Adipose tissue weight ([5]; 1 %, 200 µL s.c. left inguinal, once every 14 days, day 42, n = 9): 0.2007 ± 0.0365 g
Adipocyte density (n/mm^2) ([5]; 1 %, 200 µL s.c.): 676.94±51.326 n/mm^2
Adipocyte density (n/mm^2) ([5]; 1 %, 200 µL s.c., listed as surfactin HXRZ): 676.94±51.326 n/mm^2
Fat index (%) ([5]; 1 %, 200 µL s.c., day 42, treated-side inguinal adipose weight/body weight × 100%): 0.50±0.10 %
Ulceration ([5]; mouse, in vivo): 0
ulceration at the administration sites over the administration cycle ([5]; mouse, in vivo): no ulceration occurred at the administration sites
